Results taken from patent publication US7572770B2, “Use of an interleukin 1 receptor antagonist and/or pyrrolidinedithiocarbamate for the treatment or prophylaxis of type 2 diabetes” (University of Zurich, priority 2002, dated 2009).

How the values were obtained:
human islets = assay: Insulin release and content of human islets, leptin/siRNA study; format: cell-based
Experimental: (§1) Islet isolation and cell culture. Islets were isolated from pancreases of ten organ donors at the Department of Surgery, University of Geneva Medical Center, as described (32-34). The islet purity was >95%, as judged by dithizone staining (if this degree of purity was not primarily achieved by routine isolation, islets were handpicked). […] For long-term in vitro studies, the islets were cultured on extracellular matrix-coated plates derived from bovine corneal endothelial cells (Novamed Ltd., Jerusalem, Israel), allowing the cells to attach to the dishes and spread, preserving their functional integrity (7;35). Islets were cultured in CMRL 1066 medium containing 100 U/ml penicillin, 100 μg/ml streptomycin and 10% fetal calf serum (Invitrogen Corporation, Paisley, U.K.), hereafter referred to as culture medium. Two days after plating, when most islets were attached and began to flatten, the medium was changed to culture medium containing 5.5, 11.1 or 33.3 mM glucose. In some experiments, islets were additionally cultured with 5, 10 or 500 nM rh leptin (PeproTech, London, UK), 500 ng/ml rh IL-1Ra (R&D Systems Inc., Minneapolis, Minn.) or 50 nM small interfering RNA (siRNA) as described below.
(§2) RNA interference. RNAs of 21 nucleotides, designed to target human IL-1Ra (5′AUCUGCAGAGGCCUCCGCAtt3′/5′UGCGGAGGCCUCUGCAGAUtt3′) and scrambled siRNA were synthesized by Ambion (Austin, Tex.). siRNAs were transfected using SiPortAmine™ according to the manufacturer's instructions (Ambion).
Insulin release and content. To determine acute insulin release in response to glucose stimulation, islets were washed in Kreb's ringer bicarbonate buffer (KRB-Hepes, pH 7.4: 4.8 mM KCl, 134 mM NaCl, 5 mM NaHCO3, 1.2 mM MgSO4, 1.2 mM KH2PO4, 1 mM CaCl2, 0.5% BSA, 10 mM HEPES) containing 3.3 mM glucose and pre-incubated for 30 min in the same buffer. The KRB was then discarded and replaced by fresh buffer containing 3.3 mM glucose for 1 h for basal secretion, followed by an additional 1 h of incubation in KRB containing 16.7 mM glucose. Supernatants were collected and frozen for insulin assays. Thereafter, islets were washed with PBS and extracted with 0.18 N HCl in 70% ethanol for 24 h at 4° C. The acid-ethanol extracts were collected for determination of insulin content. Insulin was determined by a human insulin RIA kit (CIS bio international, Gif-Sur-Yvette, France).

human islets β-cells = assay: β-cell apoptosis (TUNEL, caspase 3 activation) in human islets, leptin/siRNA study; format: cell-based; conditions: for cleaved caspase 3 level: leptin
Experimental: as §1, §2
Western blot analysis. Human islets were maintained in culture medium in nonadherent plastic dishes. One day after isolation, the medium was changed and groups of 200 islets were incubated in culture medium containing 5.5 glucose with or without 10 or 500 nM leptin or 50 nM siRNA. At the end of the incubations, islets were washed in PBS, suspended in 40 μl sample buffer containing 125 mM Tris-HCl (pH 6.8), 4% SDS, 10% glycerol, 0.3% bromphenol blue, 1.8% β-mercaptoethanol and boiled for 5 min. Equivalent amounts of each treatment group were run on 15% SDS polyacrylamide gels. Proteins were electrically transferred to nitrocellulose filters and incubated with biotinylated goat anti-IL-1Ra, mouse anti-caspase 3 (which binds to both, procaspase-3 and activated caspase-3; Pharmingen, San Diego, Calif.), or mouse anti-actin (C-2; Santa Cruz Biotechnology Inc., Santa Cruz, Calif.) antibodies, followed by incubation with horseradish-peroxidase-linked anti-mouse (Santa Cruz Biotechnology Inc.) or streptavidin (Jackson). The emitted light was captured on X-ray film after adding Lumi-Light Western Blotting Substrate (Roche, Basel, Switzerland). As a marker, Kaleidoscope Prestained Standards (Bio Rad, Laboratories inc., Hercules, Calif.) was run in parallel. Between incubations, nitrocellulose membranes were stripped for 30 min at 50° C. in 40 ml of a solution containing 280 μl β-mercaptoethanol, 5 ml 0.5 M Tris-HCl (pH 6.8) and 10% SDS, and then washed for 1 h in Tris-buffered saline containing 0.10/0 Tween-20.
β-cell apoptosis. The free 3′-OH strand breaks resulting from DNA degradation were detected using the terminal deoxynucleotidyl transferase-mediated dUTP nick-end labeling (TUNEL) technique as described in detail (70;76;77). Thereafter, islets were incubated with guinea pig anti-insulin antibody as above, followed by detection using the streptavidin-biotin-peroxidase complex (Zymed Laboratories Inc., South San Francisco, Calif., USA). In parallel to the TUNEL reaction, apoptosis was confirmed by detection of caspase 3 activation as described above (Western blot analysis).

type I IL-1R = molecular target: T1, type I IL-1R (Homo sapiens, UniProt P14778); conditions: read-out: Kd, binding to type I IL-1R; cited from earlier work
T1 sequence (P14778 18-569): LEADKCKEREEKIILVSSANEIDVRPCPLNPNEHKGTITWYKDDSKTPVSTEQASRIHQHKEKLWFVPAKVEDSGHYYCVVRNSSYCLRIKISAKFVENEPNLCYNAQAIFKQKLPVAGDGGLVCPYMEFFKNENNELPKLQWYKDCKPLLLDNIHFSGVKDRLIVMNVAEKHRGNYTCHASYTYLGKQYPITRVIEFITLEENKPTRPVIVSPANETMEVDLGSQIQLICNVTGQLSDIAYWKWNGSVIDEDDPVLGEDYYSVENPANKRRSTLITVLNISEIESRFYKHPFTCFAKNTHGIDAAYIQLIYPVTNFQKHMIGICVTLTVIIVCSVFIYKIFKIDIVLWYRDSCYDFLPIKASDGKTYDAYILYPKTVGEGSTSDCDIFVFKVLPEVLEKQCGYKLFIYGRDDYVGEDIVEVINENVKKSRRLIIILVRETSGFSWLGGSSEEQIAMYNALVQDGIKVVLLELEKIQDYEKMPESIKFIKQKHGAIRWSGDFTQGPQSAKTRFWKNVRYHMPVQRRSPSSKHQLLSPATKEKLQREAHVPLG

[1] = leptin plus exogenous rh IL-1Ra 500 ng/ml
[2] = plus 500 ng/ml exogenous rhIL-1Ra

Substance	β-cell function and insulin content (human islets; [1])	loss of acute glucose-stimulated insulin release by high glucose and/or siIL-1Ra (human islets; plus exogenous rh IL-1Ra)	insulin content (human islets; siIL-1Ra and/or high glucose plus rh IL-1Ra)	glucose stimulation of insulin release (human islets; siIL-1Ra at 5.5 mM glucose, co-incubation with exogenous rh IL-1Ra)	leptin-induced β-cell apoptosis (human islets β-cells; [1])	β-cell apoptosis induced by 33.3 mM glucose alone (human islets β-cells; [2])	β-cell apoptosis induced by 33.3 mM glucose and siIL-1Ra (human islets β-cells; [2])	siIL-1Ra-induced DNA fragmentation (human islets β-cells; siIL-1Ra plus 500 ng/ml exogenous rhIL-1Ra)	Kd (type I IL-1R) [nM]	decrease of chronic insulin secretion during the culture period (human islets; leptin, 4 days) [%]	glucose-stimulated insulin secretion (human islets; leptin, 4 days, 5.5 mM glucose)	insulin content (human islets; leptin, 4 days, 5.5 mM glucose)	number of TUNEL-positive β-cells (human islets β-cells; 10 nM leptin, 4 days)	33.3 mM glucose-induced apoptosis (human islets β-cells; leptin plus 33.3 mM glucose, 4 days)	cleaved caspase 3 level (human islets β-cells; 15 hours)	cleaved caspase 3 level (human islets β-cells; 48 hours)
Interleukin 1 receptor antagonist [IL-1Ra]	restored β-cell function and insulin content	partially prevented those effects	partially restored	restored glucose stimulation	prevented leptin-induced β-cell apoptosis	protected the β-cells from apoptosis	partially	prevented the effect of siIL-1Ra on DNA fragmentation	0.2	–	–	–	–	–	–	–
leptin: rh leptin (PeproTech); protein encoded by the ob gene	–	–	–	–	–	–	–	–	–	41.65	impaired glucose-stimulated insulin secretion	decreased insulin content	increased the number of TUNEL-positive β-cells	enhanced 33.3 mM glucose-induced apoptosis	did not change baseline cleaved caspase 3 level	an increase became apparent
